Results published in patent publication USRE37886E1, “1-(1,2-Disubstituted piperidinyl)-4-substituted piperazine derivatives” (Janssen Pharmaceuticals, N.V., priority 1995, dated 2002).

Legend:
[1] = tested on: substance-P induced relaxation of the pig coronary arteries; assay: Antagonism of substance-P induced relaxation of the pig coronary arteries; type: cell-based; conditions: concentration at which 50% of the response to 10^−9 M substance P was inhibited, 30 minutes incubation, prostaglandin F2a precontracted segments
Procedure, shortened: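 Inverted pig coronary artery segments (endothelium outside) in Krebs-Henseleit, 37 °C, O2/CO2 95/5, precontracted with prostaglandin F2a (10^−5 M); substance P 3×10^−10 and 10^−9 M added cumulatively. Compound incubated 30 min before repeat challenge; IC50 is concentration inhibiting 50% of the relaxation to 10^−9 M substance P.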

[2] = tested on: substance P induced plasma extravasation; assay: Antagonism of substance P induced plasma extravasation in guinea-pigs; type: in vivo; conditions: lowest active dose, female guinea-pigs; for LAD nose: compound 1 hour prior to substance P (2 mg/kg, femoral artery), blue colouring of nose 10 minutes after challenge; for LAD conjunctiva / LAD forepaws / LAD trachea / LAD urinary bladder: compound 1 hour prior to substance P; for LAD conjunctiva: blue colouring of conjunctiva 10 minutes after challenge; for LAD forepaws: blue colouring of forepaws 10 minutes after challenge; for LAD trachea: blue colouring of trachea 30 minutes after challenge; for LAD urinary bladder: blue colouring of urinary bladder 30 minutes after challenge
Procedure, shortened: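 Female guinea-pigs dosed with compound 1 hour before femoral-artery substance P (2 mg/kg) plus Evans Blue (30 mg/kg). Blue colouring of nose, forepaws and conjunctiva scored at 10 minutes, trachea and bladder at 30 minutes; value is lowest active dose (mg/kg).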

IC50 ([1]; Sus scrofa, 0.5 h) [nM] | melting point [°C] | SMILES | LAD nose [2] [mg/kg] | LAD conjunctiva [2] [mg/kg] | LAD forepaws [2] [mg/kg] | LAD trachea [2] [mg/kg] | LAD urinary bladder [2] [mg/kg] | IC50 [1] [nM]
5.63 | 88.1 | Cc1cc(C)cc(OC(=O)C(c2ccccc2)N2CCN([C@H]3CCN(C(=O)c4cc(C(F)(F)F)cc(C(F)(F)F)c4)[C@@H](Cc4ccccc4)C3)CC2)c1 (mixture of isomers) [Compound 43, (±)-3,5-dimethylphenyl cis-4-[1-[3,5-bis(trifluoromethyl)benzoyl]-2-(phenylmethyl)-4-piperidinyl]-α-phenyl-1-piperazineacetate] | – | – | – | – | – | –
– | – | O=C(O)C=CC(=O)O.O=C(O)C=CC(=O)O.O=C(c1cc(C(F)(F)F)cc(C(F)(F)F)c1)N1CCC(N2CCCN(Cc3ccccc3)CC2)CC1Cc1ccccc1 (racemic) [Compound 68] | 10.0 | 40.0 | 10.0 | >40 | >40 | 5.88
0.29 | – | Cc1ncc(Cn2c(N3CCN([C@H]4CCN(C(=O)c5cc(C(F)(F)F)cc(C(F)(F)F)c5)[C@@H](Cc5ccccc5)C4)CC3)nc3ccccc32)o1 (racemic) [Compound 70, (±)-cis-1-[3,5-bis(trifluoromethyl)benzoyl]-4-[4-[1-[(2-methyl-5-oxazolyl)methyl]-1H-benzimidazol-2-yl]-1-piperazinyl]-2-(phenylmethyl)piperidine] | 10.0 | 10.0 | 10.0 | 10.0 | 10.0 | –
– | – | O=C(CN1CCN(C2CCN(C(=O)c3cc(C(F)(F)F)cc(C(F)(F)F)c3)C(Cc3ccccc3)C2)CC1)Nc1c(Cl)cccc1Cl (racemic) [Compound 45] | 0.63 | 0.63 | 0.63 | >40 | 2.50 | 0.15
– | – | Cc1cccc(C)c1NC(=O)CN1CCN(C2CCN(C(=O)c3cc(C(F)(F)F)cc(C(F)(F)F)c3)C(Cc3ccc(Cl)c(Cl)c3)C2)CC1 (racemic) [Compound 138] | 2.50 | 2.50 | 2.50 | 10.0 | >40 | 0.16
– | – | O=C(c1cc(C(F)(F)F)cc(C(F)(F)F)c1)N1CCC(N2CCN(CCn3c(=O)[nH]c4ccccc43)CC2)CC1Cc1ccccc1 (stereo not drawn) [Compound 19] | 2.50 | 2.50 | 2.50 | 10.0 | >40 | 0.54
– | 143.8 | O=C(c1cc(C(F)(F)F)cc(C(F)(F)F)c1)N1CC[C@H](N2CCN(Cc3ccccc3)CC2)C[C@@H]1Cc1ccccc1 (racemic) [Compound 16, (±)-cis-1-[3,5-bis(trifluoromethyl)benzoyl]-2-(phenylmethyl)-4-[4-(phenylmethyl)-1-piperazinyl]piperidine] | 40.0 | 40.0 | 40.0 | >40 | >40 | –
1.68 | 240.3 | O=C(c1cc(C(F)(F)F)cc(C(F)(F)F)c1)N1CC[C@@H](N2CCN(Cc3ccccc3)CC2)C[C@@H]1Cc1ccccc1 (racemic) [Compound 17, (±)-trans-1-[3,5-bis(trifluoromethyl)benzoyl]-2-(phenylmethyl)-4-[4-(phenylmethyl)-1-piperazinyl]piperidine (E)-2-butenedioate(1:2)] | 10.0 | 10.0 | 10.0 | >40 | 10.0 | –
